ChEMBL document CHEMBL3817755, “Design, synthesis and biological evaluation of indazolepyrimidine based derivatives as anticancer agents with anti-angiogenic and antiproliferative activities” (Medchemcomm, 2016)

Test: Cytotoxicity against human PC3 cells after 72 hrs by SRB assay
Details: PC-3, 72 h

`NS(=O)(=O)c1ccc(Nc2nccc(Nc3ccc4[nH]ncc4c3)n2)cc1` showed an IC50 of 33.8 µM.
